Results: ChEMBL document CHEMBL3739395, “Discovery and optimisation of 1-acyl-2-benzylpyrrolidines as potent dual orexin receptor antagonists” (Medchemcomm, 2015)
≈ marks a conversion by molar mass, not a printed value. Calls of active or inactive are those of the source. The rule behind the calls is not given here.

Experiments:
[1] = molecular target: T1, Orexin/Hypocretin receptor type 1 (Homo sapiens, UniProt O43613); test: Inhibition of human orexin-1 receptor expressed in CHO cells assessed as calcium release preincubated for 120 mins followed by addition of orexin-A by fluo-4 AM based-FLIPR analysis; format: functional, cell-based
T1 sequence (O43613 whole entry): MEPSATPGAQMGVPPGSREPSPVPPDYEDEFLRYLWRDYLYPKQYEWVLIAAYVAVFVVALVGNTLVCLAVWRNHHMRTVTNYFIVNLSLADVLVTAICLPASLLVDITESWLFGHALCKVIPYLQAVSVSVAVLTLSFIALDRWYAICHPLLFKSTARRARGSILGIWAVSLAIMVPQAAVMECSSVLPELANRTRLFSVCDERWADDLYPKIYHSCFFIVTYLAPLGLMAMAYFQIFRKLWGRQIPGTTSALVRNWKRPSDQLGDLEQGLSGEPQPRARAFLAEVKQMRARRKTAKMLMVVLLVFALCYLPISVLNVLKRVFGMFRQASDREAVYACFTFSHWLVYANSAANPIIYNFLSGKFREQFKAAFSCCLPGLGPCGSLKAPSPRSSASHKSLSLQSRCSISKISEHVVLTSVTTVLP

[2] = Intrinsic clearance in human liver microsomes at 1 uM; format: ADME; conditions: read-out: CLH
Orexin receptor type 2 = molecular target: T2, Orexin receptor type 2 (Homo sapiens, UniProt O43614); test: Inhibition of human orexin-2 receptor expressed in CHO cells assessed as calcium release preincubated for 120 mins followed by addition of orexin-A by fluo-4 AM based-FLIPR analysis; format: functional, cell-based
T2 sequence (O43614 whole entry): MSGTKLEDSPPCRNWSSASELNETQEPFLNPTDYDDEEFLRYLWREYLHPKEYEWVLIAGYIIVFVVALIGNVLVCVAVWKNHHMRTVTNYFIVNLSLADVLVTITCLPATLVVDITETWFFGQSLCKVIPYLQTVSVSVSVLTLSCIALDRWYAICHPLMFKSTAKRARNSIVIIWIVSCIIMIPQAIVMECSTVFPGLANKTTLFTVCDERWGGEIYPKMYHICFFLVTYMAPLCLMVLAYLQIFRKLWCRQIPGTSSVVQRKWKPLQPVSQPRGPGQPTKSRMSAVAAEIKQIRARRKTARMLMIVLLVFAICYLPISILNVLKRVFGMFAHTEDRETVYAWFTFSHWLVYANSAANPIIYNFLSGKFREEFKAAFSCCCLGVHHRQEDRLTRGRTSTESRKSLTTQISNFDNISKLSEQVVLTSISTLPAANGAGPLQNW

[3] = Intrinsic clearance in rat liver microsomes at 1 uM; format: ADME; conditions: read-out: CLH
[4] = Drug uptake in Wistar rat brain at 100 mg/kg, po measured 3 hrs post dose; format: ADME, organism-based; conditions: read-out: Drug uptake
[5] = Plasma concentration in Wistar rat at 100 mg/kg, po measured 3 hrs post dose; format: ADME, organism-based
[6] = Ratio of drug level in brain to plasma in Wistar rat at 100 mg/kg, po measured 3 hrs post dose; format: ADME, organism-based; conditions: brain and plasma, read-out: BPR
[7] = Drug uptake in Wistar rat cerebrospinal fluid at 100 mg/kg, po measured 3 hrs post dose; format: ADME, organism-based; conditions: read-out: Drug uptake
Rattus norvegicus [8] = test: Sleep promoting effect in Wistar rat sleep model at 100 mg/kg, po administered as single dose during first 6 hrs of night active period post dose relative to vehicle control; format: functional, organism-based
Rattus norvegicus [9] = test: Increase in time spent in rapid eye movement sleep in Wistar rat sleep model at 100 mg/kg, po administered as single dose during first 6 hrs of night active period post dose relative to vehicle control; format: functional
Rattus norvegicus [10] = test: Increase in time spent in non-rapid eye movement sleep in Wistar rat sleep model at 100 mg/kg, po administered as single dose during first 6 hrs of night active period post dose relative to vehicle control; format: functional
Rattus norvegicus [11] = test: Reduction in home cage activity in Wistar rat sleep model at 100 mg/kg, po administered as single dose during first 6 hrs of night active period post dose relative to vehicle control; format: functional; set-up: scale not given: the % may be the effect or the level left
Rattus norvegicus [12] = test: Increase in time spent in quiet wake state in Wistar rat sleep model at 100 mg/kg, po administered as single dose during first 6 hrs of night active period post dose relative to vehicle control; format: functional
Rattus norvegicus [13] = test: Reduction in time spent in active wake state in Wistar rat sleep model at 100 mg/kg, po administered as single dose during first 6 hrs of night active period post dose relative to vehicle control; format: functional; set-up: scale not given: the % may be the effect or the level left
Cytochrome P450 3A4 = Cytochrome P450 3A4 (Homo sapiens, UniProt P08684); test: Inhibition of CYP3A4 (unknown origin) assessed as testosterone-6beta hydroxylation; format: ADME
Chain of Cytochrome P450 3A4 (P08684 whole entry): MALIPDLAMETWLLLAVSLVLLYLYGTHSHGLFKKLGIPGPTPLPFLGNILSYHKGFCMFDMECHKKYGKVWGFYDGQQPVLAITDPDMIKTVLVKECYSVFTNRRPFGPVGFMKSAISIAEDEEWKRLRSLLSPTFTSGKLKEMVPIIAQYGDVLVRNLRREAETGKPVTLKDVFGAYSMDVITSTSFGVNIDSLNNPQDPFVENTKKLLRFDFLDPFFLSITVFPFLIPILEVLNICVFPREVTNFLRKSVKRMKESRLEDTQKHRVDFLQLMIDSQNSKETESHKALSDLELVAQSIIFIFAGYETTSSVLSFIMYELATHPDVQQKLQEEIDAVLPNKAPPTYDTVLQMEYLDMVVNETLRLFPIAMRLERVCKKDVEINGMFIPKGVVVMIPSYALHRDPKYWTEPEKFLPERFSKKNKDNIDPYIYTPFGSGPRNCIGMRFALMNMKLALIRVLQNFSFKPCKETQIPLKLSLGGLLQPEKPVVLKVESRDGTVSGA

[14] = Solubility of compound in unbuffered water at pH 4.1; format: physicochemical
[15] = Clearance in rat; format: ADME, organism-based; conditions: in vivo
[16] = Lipophilicity, log D of the compound; format: physicochemical; conditions: octanol/water
[17] = Oral bioavailability in rat; format: ADME, organism-based; conditions: in vivo

Structure (SMILES) | IC50 [1] | microsomal CLint at 1 µM [2] | IC50 (Orexin receptor type 2) | also measured
COc1ccc(C[C@@H]2CCCN2C(=O)c2nc(C)sc2-c2ccc(F)cc2)cc1OC | 0.111 µM | 216 µL/min/mg | 0.062 µM | 
COc1cccc(-c2sc(C)nc2C(=O)N2CCC[C@H]2Cc2ccc(OC)c(OC)c2)c1 | 0.011 µM | 300 µL/min/mg | 0.0078 µM | 
COc1ccc(CCC2CCCCN2C(=O)c2cc(C)ccc2-n2nccn2)cc1OC (racemic) | 0.028 µM | 817 µL/min/mg | 0.016 µM | 
COc1ccc(CC2CCCCN2C(=O)c2cc(C)ccc2-n2nccn2)cc1OC (racemic) | 0.0027 µM | 616 µL/min/mg | 0.0033 µM | 
COc1ccc(C[C@@H]2CCCN2C(=O)c2ccccc2-n2nccn2)cc1OC | 0.016 µM | 104 µL/min/mg | 0.0035 µM | microsomal CLint at 1 µM [3]: > 1250 µL/min/mg; concentration at 3 h [4]: 45 ng/mL; concentration at 3 h [5]: 114 ng/mL; Kp at 3 h [6]: 0.39; concentration at 3 h [7]: 12 ng/mL
COc1ccc(C[C@@H]2CCCN2C(=O)c2nc(C)sc2-c2cccc(C)c2)cc1OC | 0.0035 µM | 338 µL/min/mg | 0.0031 µM | microsomal CLint at 1 µM [3]: > 1250 µL/min/mg; concentration at 3 h [4]: 125 ng/mL; concentration at 3 h [5]: 129 ng/mL; Kp at 3 h [6]: 0.97; concentration at 3 h [7]: 6 ng/mL
COc1ccc(C[C@@H]2CCCN2C(=O)c2ccccc2-c2nc(C)no2)cc1OC | 0.033 µM | 129 µL/min/mg | 0.012 µM | 
COc1ccc(C[C@@H]2CCCN2C(=O)c2nc(C)sc2-c2ccc3c(c2)CCO3)cc1OC | 0.0083 µM | 235 µL/min/mg | 0.008 µM | 
Cc1cccc(-c2sc(C)nc2C(=O)N2CCC[C@H]2Cc2ccc(C)c(Cl)c2)c1 | 0.013 µM | > 1250 µL/min/mg | 0.01 µM | microsomal CLint at 1 µM [3]: > 1250 µL/min/mg
CCn1cc(C(=O)N2CCCCC2Cc2ccc(OC)c(OC)c2)c2ccccc21 (racemic) | 0.028 µM |  | 0.102 µM | 
COc1ccc(C[C@@H]2CCCN2C(=O)c2nccnc2-c2cccc(C)c2)cc1OC | 0.023 µM | 158 µL/min/mg | 0.004 µM | concentration at 3 h [4]: 89 ng/mL; concentration at 3 h [5]: 225 ng/mL; Kp at 3 h [6]: 0.4; concentration at 3 h [7]: 22 ng/mL
CNC(=O)[C@@H](c1ccccc1)N1CCc2cc(OC)c(OC)cc2[C@@H]1CCc1ccc(C(F)(F)F)cc1 [ALMOREXANT] |  |  |  | Activity (Rattus norvegicus [8]): Active; Activity (Rattus norvegicus [9]): 50%; Activity (Rattus norvegicus [10]): 22%; Activity (Rattus norvegicus [11]): -42%; Activity (Rattus norvegicus [12]): -8%; Activity (Rattus norvegicus [13]): -20%
COc1ccc(C[C@@H]2CCCN2C(=O)c2nc(C)sc2-c2cccc(C)c2)cc1Cl | 0.0038 µM | > 1250 µL/min/mg | 0.0018 µM | microsomal CLint at 1 µM [3]: > 1250 µL/min/mg
COc1ccc(C[C@@H]2CCCN2C(=O)c2nc(C)sc2-c2cccc(Cl)c2)cc1OC | 0.0091 µM | 612 µL/min/mg | 0.0063 µM | 
COc1cc(C[C@@H]2CCCN2C(=O)c2nc(C)sc2-c2cccc(C)c2)cc(OC)c1 | 0.0034 µM | 798 µL/min/mg | 0.0043 µM | 
COc1cccc(C[C@@H]2CCCN2C(=O)c2nc(C)sc2-c2cccc(C)c2)c1Cl | 0.026 µM | > 1250 µL/min/mg | 0.016 µM | microsomal CLint at 1 µM [3]: > 1250 µL/min/mg
Cc1cccc(-c2sc(C)nc2C(=O)N2CCC[C@H]2Cc2ccc3c(c2)OCCO3)c1 | 0.035 µM | 1040 µL/min/mg | 0.039 µM | 
COc1ccc(C[C@@H]2CCCN2C(=O)c2nc(C)ccc2-c2ncccn2)cc1OC | 0.06 µM | 17 µL/min/mg | 0.071 µM | 
COc1cccc(CCC2CCCCN2C(=O)c2cc(C)ccc2-n2nccn2)c1 (racemic) | 0.108 µM | 1170 µL/min/mg | 0.243 µM | 
COc1ccc(Cl)c(C[C@@H]2CCCN2C(=O)c2nc(C)sc2-c2cccc(C)c2)c1 | 0.033 µM | 996 µL/min/mg | 0.018 µM | microsomal CLint at 1 µM [3]: > 1250 µL/min/mg
COc1ccc(C[C@@H]2CCCN2C(=O)c2cc(C)ccc2-n2cccn2)cc1OC | 0.045 µM | > 1250 µL/min/mg | 0.065 µM | 
CCn1cc(C(=O)N2CCc3ccsc3C2Cc2ccc(OC)c(OC)c2)c2ccccc21 (racemic) | 0.0054 µM | > 1250 µL/min/mg | 0.0014 µM | microsomal CLint at 1 µM [3]: > 1250 µL/min/mg; IC50 (Cytochrome P450 3A4): 3 µM; solubility [14]: 7 µg/mL (≈ 15.2 µM)
Cc1ccc(-n2nccn2)c(C(=O)N2CCN(c3nc4cc(Cl)ccc4o3)CC[C@H]2C)c1 [SUVOREXANT] |  |  |  | Activity (Rattus norvegicus [8]): Active; Activity (Rattus norvegicus [9]): 20%; Activity (Rattus norvegicus [10]): 19%; Activity (Rattus norvegicus [11]): -31%; Activity (Rattus norvegicus [12]): 9%; Activity (Rattus norvegicus [13]): -16%
COc1ccc(-c2sc(C)nc2C(=O)N2CCC[C@H]2Cc2ccc(OC)c(OC)c2)cc1 | 0.017 µM | 210 µL/min/mg | 0.01 µM | 
Cc1cccc(-c2sc(C)nc2C(=O)N2CCC[C@H]2Cc2ccc3c(c2)OCO3)c1 | 0.064 µM | 124 µL/min/mg | 0.04 µM | 
COc1ccc(CC2c3sccc3CCN2C(=O)c2cc(C)ccc2-n2nccn2)cc1OC (racemic) | 0.131 µM |  | 0.428 µM | 
Cc1cccc(-c2sc(C)nc2C(=O)N2CCC[C@H]2Cc2ccc(Cl)c(Cl)c2)c1 | 0.022 µM | > 1250 µL/min/mg | 0.066 µM | 
COc1ccc(C[C@@H]2CCCN2C(=O)c2ccccc2-c2ncccn2)cc1OC | 0.016 µM | 102 µL/min/mg | 0.0047 µM | concentration at 3 h [4]: 134 ng/mL; concentration at 3 h [5]: 737 ng/mL; Kp at 3 h [6]: 0.18; concentration at 3 h [7]: 113 ng/mL
COc1ccc(C[C@@H]2CCCN2C(=O)c2cc(C)ccc2-n2nccn2)cc1OC | 0.0085 µM | 356 µL/min/mg | 0.0084 µM | clearance [15]: 55 mL/min/kg; microsomal CLint at 1 µM [3]: > 1250 µL/min/mg; logD [16]: 3; bioavailability [17]: < 10%; solubility [14]: 160 µg/mL (≈ 394 µM)
